The values that follow come from ChEMBL document CHEMBL1201862, “PubChem BioAssay data set” (2004).

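Exposure lasted 48 hours, with cells grown in 96-well plates and compounds tested at five concentrations. GI50 marks 50% less growth.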 Activity calls are given as the source filed them. Cut-off read from the data, not from the text of the source: active = GI50 up to about 1.1 µM and inactive = higher.

Test systems include 786-0; CCRF-CEM; HCT-116; HCT-15; HOP-92; Hs-578T; K562; KM12; M14; MDA-MB-231; MOLT-4; NCI-H226; OVCAR-4; SK-MEL-5; SK-OV-3; SN12C; T47D; U-251; UACC-257; UO-31.
Test in all cases: inhibition of tumour cell growth, NCI panel, 48 h

With `CCC/C(Cl)=N\OC(=O)Nc1ccc(OC(F)(F)F)cc1`, the GI50 with 786-0 is 12.3 µM (inactive); in the assay with CCRF-CEM, 2.47 µM (inactive); with HCT-116, 9.4 µM (inactive); with HCT-15, 2.42 µM; in the assay on HOP-92, 2.22 µM (inactive); in the assay with Hs-578T, 28.1 µM (inactive). Moreover, the GI50 with K562 was 2.42 µM (inactive); in the assay with KM12, 9.48 µM (inactive); in the assay with M14, 6.52 µM (inactive); in the assay with MDA-MB-231, 9.93 µM (inactive); in the assay with MOLT-4, 1.86 µM (inactive); in the assay with NCI-H226, 15.6 µM (inactive). Besides, the GI50 in the assay on OVCAR-4 is 18.6 µM (inactive); with SK-MEL-5, 5.4 µM (inactive); in the assay with SK-OV-3, 18.5 µM (inactive); in the assay on SN12C, 8.57 µM (inactive); in the assay on T47D it was 2.79 µM (inactive); in the assay on U-251, 27 µM (inactive). Also, the GI50 was 19.6 µM (inactive) in the assay on UACC-257 and 8.53 µM (inactive) in the assay on UO-31.
